Results from paper PMC12073402, “A Selective MAP3K1 Inhibitor Facilitates Discovery of NPM1 as a Member of the Network” (Molecules, 2025).
Where two headings read alike, the source gives them in different places.

Tests used:
[1] = test system: NPM1 T199 phosphorylation; experiment: Western blot of NPM1 T199 phosphorylation in PANC-1 cells; format: cell-based; conditions: 2 h
Text: We further investigated changes in NPM1 phosphorylation in our dataset. Of the NPM1 phosphorylation sites quantified, four sites had significant dose-dependent decreases upon 51-106 treatment: S137, T199, S222, and S227. Only one of these phosphorylation sites, T199, has a commercially available antibody. Importantly, T199 phosphorylation plays an essential role in NPM1 function, as it is required for localization of NPM1 to sites of DNA double-stranded breaks, where it colocalizes with other DNA repair proteins such as γH2AX and RAD51 [38].
Cells were washed with cold 1× PBS and lysed in Radioimmunoprecipitation assay (RIPA) buffer (Cat# 89901; Thermo Fisher Scientific), sodium orthovanadate (Na3VO4) (Cat# 567540-5GM; Sigma-Aldrich; St. Louis, MO, USA), sodium fluoride (NaF) (Cat# 201154-5G, >99% purity; Sigma-Aldrich), β-glycerophosphate (Cat# G9422-10G; Sigma-Aldrich), and 1 mM phenylmethylsulfonyl fluoride (Cat# 10837091001; Sigma Aldrich). The samples were incubated on ice for 30 min, vortexed at 10 min intervals, and centrifuged at 14,000× g for 10 min at 4 °C. The supernatant was collected, and protein was quantified using the BCA Protein Assay kit (Cat# 23225; Thermo Fisher Scientific). […]

[2] = Metabolic stability in human liver microsomes (LC-MS/MS); format: in vitro ADME; conditions: Species Human
Text: An approach to address this issue of bioavailability is to improve metabolic stability. The para-position of the phenyl ring in acetanilide moieties is susceptible to oxidation. […] To test this, we altered the substitution pattern on the phenyl ring by moving the F atom from the ortho in 84 to the para position (Figure 1A). The regioisomer 51-106, resulting from the above change, was synthesized by coupling 3-(1-methyl-1H-pyrazol-4-yl)quinoxalin-6-amine (1) with freshly prepared 1-fluoro-4-isocyanato-2-(trifluoromethyl)benzene in dichloromethane (Scheme 1). To determine the metabolic stability of 51-106, we incubated 51-106 and analog 84 with human (pooled male and female) liver microsomes and monitored their stability using liquid chromatography–tandem mass spectrometry.
The in vitro metabolic stability of 51-106 was determined using human liver […] (XenoTech, LLC; Kansas City, KS, USA), following previously reported methods. […] Sample analysis was performed by liquid chromatography–tandem mass spectrometry (SCIEX QTRAP 4000 LC-MS/MS System, SCIEX, Framingham, MA, USA).

[3] = test system: pancreatic cancer mouse model; set-up: method as in PMID 34098465; conditions: by itself and in combination with gemcitabine; cited from earlier work
[4] = set-up: method as in PMID 34098465; conditions: cited from earlier work
[5] = test system: TNFα-induced IKKβ-mediated NFκB activation; set-up: method as in PMID 34098465; conditions: analog 84 over the earlier IKKβ inhibitor; cited from earlier work

Row | T1/2 (half-life) in human liver microsomes [2] | Hepatic Extraction Ratio (E) ([2]; human liver microsomes) | half-life ([2]; both sexes, human, liver microsomes, read-out: T1/2 (half-life) in human liver microsomes (converted)) [h] | Compound | NPM1 T199 phosphorylation (Western blot) [1] | tumor growth [3] | AUC0-∞ ([4]; 20 mg/kg, Oral) [ng·h/mL] | AUClast ([4]; 20 mg/kg, Oral) [ng·h/mL] | Cmax ([4]; 20 mg/kg, Oral) [ng/mL] | MRT 0-∞ ([4]; 20 mg/kg, Oral) [h] | T1/2 ([4]; 20 mg/kg, Oral) [h] | Tmax ([4]; 20 mg/kg, Oral) [h] | Bioavailability (%F) ([4]; 20 mg/kg, Oral, listed as 84) [%] | Bioavailability (%F) ([4]; 20 mg/kg, Oral, listed as analog 84) [%] | improved bioavailability ([4]; analog 84 over the earlier IKKβ inhibitor) | improved potency [5]
1 |  |  |  | CN[C@@H]1C[C@H]2O[C@@](C)([C@@H]1OC)n1c3ccccc3c3c4c(c5c6ccccc6n2c5c31)C(=O)NC4 [Staurosporine, reference compound] | Decreased phosphorylation in NPM1 T199 |  |  |  |  |  |  |  |  |  |  | 
2 | ~ 13 h | 0.09 | 13.6 | Cn1cc(-c2cnc3ccc(NC(=O)Nc4cccc(C(F)(F)F)c4F)cc3n2)cn1 [Analog 84] |  | inhibited tumor growth | 8008 ± 3696 | 7986 ± 3675 | 700 ± 320 | 6.3 ± 0.5 | 2.5 ± 0.3 | 6.0 | 17.6 | ~17 | ~ 5.7 fold | ~ 4 fold
